The text below walks through data of patent US12471596B2 (priority 2019, dated 2025).

SMILES strings stand for the structures.

For the test, the system named is Phytophthora infestans. Nature of the test: microbe, parasite or virus in culture. To be noted: in Secale cereale, 168 h, read-out: control compared to the untreated check. The test is classed as cell-based.
Take `O=C(COc1cc(C(F)(F)F)ncn1)N1CCC(c2nc(C3=NOC(c4c(Cl)cccc4C(F)(F)F)C3)cs2)CC1` (centres unmarked) [Compound 10, 1-(4-(4-(5-(2-chloro-6-(trifluoromethyl)phenyl)-4,5-dihydroisoxazol-3-yl)thiazol-2-yl)piperidin-1-yl)-2-((6-(trifluoromethyl)pyrimidin-4-yl)oxy)ethan-1-one]: the inhibition of growth at 30 ppm is ≥ 70%.
With `O=C(COc1cc(C(F)(F)F)ncn1)N1CCC(c2nc(C3=NOC(c4c(Cl)cc(Cl)cc4Cl)C3)cs2)CC1` (centres unmarked) [Compound 11, 1-(4-(4-(5-(2,4,6-trichlorophenyl)-4,5-dihydroisoxazol-3-yl)thiazol-2-yl)piperidin-1-yl)-2-((6-(trifluoromethyl)pyrimidin-4-yl)oxy)ethan-1-one] the figure was ≥ 70%; with `O=C(COc1cc(C(F)(F)F)ncn1)N1CCC(c2nc(C3=NOC(c4c(F)cccc4F)C3)cs2)CC1` (centres unmarked) [Compound 12, 1-(4-(4-(5-(2,6-difluorophenyl)-4,5-dihydroisoxazol-3-yl)thiazol-2-yl)piperidin-1-yl)-2-((6-(trifluoromethyl)pyrimidin-4-yl)oxy)ethan-1-one], ≥ 70%.
With `O=C(COc1ccnc(C(F)(F)F)n1)N1CCC(c2nc(C3=NOC(c4c(Cl)cc(Cl)cc4Cl)C3)cs2)CC1` (centres unmarked) [Compound 19, 1-(4-(4-(5-(2,4,6-trichlorophenyl)-4,5-dihydroisoxazol-3-yl)thiazol-2-yl)piperidin-1-yl)-2-((2-(trifluoromethyl)pyrimidin-4-yl)oxy)ethan-1-one] the figure was ≥ 70%; with `O=C(COc1ccnc(C(F)(F)F)n1)N1CCC(c2nc(C3=NOC(c4c(F)cccc4Cl)C3)cs2)CC1` (centres unmarked) [Compound 20, 1-(4-(4-(5-(2-chloro-6-fluorophenyl)-4,5-dihydroisoxazol-3-yl)thiazol-2-yl)piperidin-1-yl)-2-((2-(trifluoromethyl)pyrimidin-4-yl)oxy)ethan-1-one], ≥ 70%; with `CS(=O)(=O)Oc1cccc(Cl)c1C1CC(c2csc(C3CCN(C(=O)COc4ccnc(C(F)(F)F)n4)CC3)n2)=NO1` (centres unmarked) [Compound 21, 3-chloro-2-(3-(2-(1-(2-((2-(trifluoromethyl)pyrimidin-4-yl)oxy)acetyl)piperidin-4-yl)thiazol-4-yl)-4,5-dihydroisoxazol-5-yl)phenyl methanesulfonate], ≥ 70%.
As to `COc1nccnc1OCC(=O)N1CCC(c2nc(C3=NOC(c4c(Cl)cc(Cl)cc4Cl)C3)cs2)CC1` (centres unmarked) [Compound 24, 2-((3-methoxypyrazin-2-yl)oxy)-1-(4-(4-(5-(2,4,6-trichlorophenyl)-4,5-dihydroisoxazol-3-yl)thiazol-2-yl)piperidin-1-yl)ethan-1-one], the inhibition of growth at 30 ppm is ≥ 70%.
With `COc1nccnc1OCC(=O)N1CCC(c2nc(C3=NOC(c4c(Cl)cccc4Cl)C3)cs2)CC1` (centres unmarked) [Compound 30, 1-(4-(4-(5-(2,6-dichlorophenyl)-4,5-dihydroisoxazol-3-yl)thiazol-2-yl)piperidin-1-yl)-2-((3-methoxypyrazin-2-yl)oxy)ethan-1-one] the figure was ≥ 70%; with `COc1ccnc(OCC(=O)N2CCC(c3nc(C4=NOC(c5c(F)cccc5Br)C4)cs3)CC2)n1` (centres unmarked) [Compound 44, 1-(4-(4-(5-(2-bromo-6-fluorophenyl)-4,5-dihydroisoxazol-3-yl)thiazol-2-yl)piperidin-1-yl)-2-((4-methoxypyrimidin-2-yl)oxy)ethan-1-one], ≥ 70%.
As for `N#Cc1cccc(Cl)c1C1CC(c2csc(C3CCN(C(=O)COc4nccc(C(F)(F)F)n4)CC3)n2)=NO1` (centres unmarked) [Compound 45, 3-chloro-2-(3-(2-(1-(2-((4-(trifluoromethyl)pyrimidin-2-yl)oxy)acetyl)piperidin-4-yl)thiazol-4-yl)-4,5-dihydroisoxazol-5-yl)benzonitrile], the inhibition of growth at 30 ppm was ≥ 70%.
With `CS(=O)(=O)Oc1cccc(Cl)c1C1CC(c2csc(C3CCN(C(=O)COc4nccc(C(F)(F)F)n4)CC3)n2)=NO1` (centres unmarked) [Compound 46, 3-chloro-2-(3-(2-(1-(2-((4-(trifluoromethyl)pyrimidin-2-yl)oxy)acetyl)piperidin-4-yl)thiazol-4-yl)-4,5-dihydroisoxazol-5-yl)phenyl methanesulfonate] the figure was ≥ 70%.
With `O=C(COc1nccc(C(F)(F)F)n1)N1CCC(c2nc(C3=NOC(c4c(Cl)cccc4Cl)C3)cs2)CC1` (centres unmarked) [Compound 47, 1-(4-(4-(5-(2,6-dichlorophenyl)-4,5-dihydroisoxazol-3-yl)thiazol-2-yl)piperidin-1-yl)-2-((4-(trifluoromethyl)pyrimidin-2-yl)oxy)ethan-1-one] the figure was ≥ 70%.
With `O=C(COc1nccc(C(F)(F)F)n1)N1CCC(c2nc(C3=NOC(c4c(F)cccc4Cl)C3)cs2)CC1` (centres unmarked) [Compound 48, 1-(4-(4-(5-(2-chloro-6-fluorophenyl)-4,5-dihydroisoxazol-3-yl)thiazol-2-yl)piperidin-1-yl)-2-((4-(trifluoromethyl)pyrimidin-2-yl)oxy)ethan-1-one], the inhibition of growth at 30 ppm is ≥ 70%.
With `O=C(COc1nccc(C(F)(F)F)n1)N1CCC(c2nc(C3=NOC(c4c(Cl)cc(Cl)cc4Cl)C3)cs2)CC1` (centres unmarked) [Compound 49, 1-(4-(4-(5-(2,4,6-trichlorophenyl)-4,5-dihydroisoxazol-3-yl)thiazol-2-yl)piperidin-1-yl)-2-((4-(trifluoromethyl)pyrimidin-2-yl)oxy)ethan-1-one] the figure was ≥ 70%; with `O=C(COc1nccc(C(F)(F)F)n1)N1CCC(c2nc(C3=NOC(c4c(F)cccc4F)C3)cs2)CC1` (centres unmarked) [Compound 50, 1-(4-(4-(5-(2,6-difluorophenyl)-4,5-dihydroisoxazol-3-yl)thiazol-2-yl)piperidin-1-yl)-2-((4-(trifluoromethyl)pyrimidin-2-yl)oxy)ethan-1-one], ≥ 70%; with `O=C(COc1nccc(C(F)(F)F)n1)N1CCC(c2nc(C3=NOC(c4c(F)cccc4Br)C3)cs2)CC1` (centres unmarked) [Compound 52, 1-(4-(4-(5-(2-bromo-6-fluorophenyl)-4,5-dihydroisoxazol-3-yl)thiazol-2-yl)piperidin-1-yl)-2-((4-(trifluoromethyl)pyrimidin-2-yl)oxy)ethan-1-one], ≥ 70%.
With `O=C(COc1cncc(C(F)(F)F)n1)N1CCC(c2nc(C3=NOC(c4c(F)cccc4Cl)C3)cs2)CC1` (centres unmarked) [Compound 53, 1-(4-(4-(5-(2-chloro-6-fluorophenyl)-4,5-dihydroisoxazol-3-yl)thiazol-2-yl)piperidin-1-yl)-2-((6-(trifluoromethyl)pyrazin-2-yl)oxy)ethan-1-one] the figure was ≥ 70%.
With `O=C(COc1cncc(C(F)(F)F)n1)N1CCC(c2nc(C3=NOC(c4c(Cl)cccc4Cl)C3)cs2)CC1` (centres unmarked) [Compound 55, 1-(4-(4-(5-(2,6-dichlorophenyl)-4,5-dihydroisoxazol-3-yl)thiazol-2-yl)piperidin-1-yl)-2-((6-(trifluoromethyl)pyrazin-2-yl)oxy)ethan-1-one] the figure was ≥ 70%; with `N#Cc1cccc(Cl)c1C1CC(c2csc(C3CCN(C(=O)COc4cncc(C(F)(F)F)n4)CC3)n2)=NO1` (centres unmarked) [Compound 56, 3-chloro-2-(3-(2-(1-(2-((6-(trifluoromethyl)pyrazin-2-yl)oxy)acetyl)piperidin-4-yl)thiazol-4-yl)-4,5-dihydroisoxazol-5-yl)benzonitrile], ≥ 70%; with `CS(=O)(=O)Oc1cccc(Cl)c1C1CC(c2csc(C3CCN(C(=O)COc4cncc(C(F)(F)F)n4)CC3)n2)=NO1` (centres unmarked) [Compound 57, 3-chloro-2-(3-(2-(1-(2-((6-(trifluoromethyl)pyrazin-2-yl)oxy)acetyl)piperidin-4-yl)thiazol-4-yl)-4,5-dihydroisoxazol-5-yl)phenyl methanesulfonate], ≥ 70%.
Consider `O=C(COc1cncc(C(F)(F)F)n1)N1CCC(c2nc(C3=NOC(c4c(F)cccc4F)C3)cs2)CC1` (centres unmarked) [Compound 58, 1-(4-(4-(5-(2,6-difluorophenyl)-4,5-dihydroisoxazol-3-yl)thiazol-2-yl)piperidin-1-yl)-2-((6-(trifluoromethyl)pyrazin-2-yl)oxy)ethan-1-one], for which the inhibition of growth at 30 ppm is ≥ 70%.
With `O=C(COc1cncc(C(F)(F)F)n1)N1CCC(c2nc(C3=NOC(c4c(F)cccc4Br)C3)cs2)CC1` (centres unmarked) [Compound 59, 1-(4-(4-(5-(2-bromo-6-fluorophenyl)-4,5-dihydroisoxazol-3-yl)thiazol-2-yl)piperidin-1-yl)-2-((6-(trifluoromethyl)pyrazin-2-yl)oxy)ethan-1-one] the figure was ≥ 70%.
With `O=C(COc1cncc(C(F)(F)F)n1)N1CCC(c2nc(C3=NOC(c4c(Cl)ccc(F)c4F)C3)cs2)CC1` (centres unmarked) [Compound 61, 1-(4-(4-(5-(6-chloro-2,3-difluorophenyl)-4,5-dihydroisoxazol-3-yl)thiazol-2-yl)piperidin-1-yl)-2-((6-(trifluoromethyl)pyrazin-2-yl)oxy)ethan-1-one], the inhibition of growth at 30 ppm is ≥ 70%.
Under `COc1ccnc(OCC(=O)N2CCC(c3nc(C4=NOC(c5c(Cl)ccc(F)c5F)C4)cs3)CC2)n1` (centres unmarked) [Compound 63, 1-(4-(4-(5-(6-chloro-2,3-difluorophenyl)-4,5-dihydroisoxazol-3-yl)thiazol-2-yl)piperidin-1-yl)-2-((4-methoxypyrimidin-2-yl)oxy)ethan-1-one] stands ≥ 70%.
Turning to `COc1nccnc1OCC(=O)N1CCC(c2nc(C3=NOC(c4c(Cl)cccc4C(F)(F)F)C3)cs2)CC1` (centres unmarked) [Compound 65, 1-(4-(4-(5-(2-chloro-6-(trifluoromethyl)phenyl)-4,5-dihydroisoxazol-3-yl)thiazol-2-yl)piperidin-1-yl)-2-((3-methoxypyrazin-2-yl)oxy)ethan-1-one], the inhibition of growth at 30 ppm was ≥ 70%.
Under `O=C(COc1ccc(C(F)(F)F)nn1)N1CCC(c2nc(C3=NOC(c4c(Cl)cccc4C(F)(F)F)C3)cs2)CC1` (centres unmarked) [Compound 66, 1-(4-(4-(5-(2-chloro-6-(trifluoromethyl)phenyl)-4,5-dihydroisoxazol-3-yl)thiazol-2-yl)piperidin-1-yl)-2-((6-(trifluoromethyl)pyridazin-3-yl)oxy)ethan-1-one] stands ≥ 70%.
